Data on 2 molecules can be found in patent US20230253066A1, “DESIGNED PROTEINS FOR LIGAND BINDING” (The Regents of the University of California, priority 2020, published 2023).

In the assay the target is ABLE. As to the kind of experiment: Fluorescence anisotropy ligand competition on ABLE (displacement of apixaban-peg-FITC). The class given is binding. The procedure:
We performed fluorescence anisotropy experiments (54, 55) of ABLE and LABLE using a FITC fluorophore conjugated to apixaban as the fluorescent probe (FIGS. 512A-512D and Scheme 1). We serially diluted a concentrated protein solution containing 25 nM Apx-peg-FITC, holding constant the concentration of Apx-peg-FITC. Parallel and perpendicularly polarized emission at 528 nm (10 nm slit width, 510 nm long pass filter) were integrated for 10 seconds after 485 nm (5 nm slit width) excitation of the FITC fluorophore of Apx-peg-FITC. The data were fit to a single-site binding model (Equation 2, with N=1) (FIG. S12B). We performed ligand competition experiments (54, 55) by adding aliquots of a concentrated ligand stock in DMSO into an approximately 50% bound complex of protein and Apx-peg-FITC (25 nM). The decrease in anisotropy as a function of competing ligand was fit to a competitive binding model (54, 55) (FIG. 4D and FIG. S12C and FIG. S12D). Because effects of DMSO on the anisotropy of bound ABLE/Apx-peg-FITC complex become more pronounced at high concentrations of DMSO (>4%), we fit only the initial data points at low DMSO concentration (% DMSO <2%, FIG. 4D). […] DMSO may have a minor effect on competitive binding with weaker competitors (i.e., apixabanCOO^− and rivaroxaban), where high concentrations of competitor are needed to decrease anisotropy. As such, the reported dissociation constants of these weaker competitors can be viewed as a lower limit to the KD. Fluorescence polarization competition with apixaban as competitor gives a KD of 7 (±1) μM for the apixaban/ABLE complex (FIG. 4D), which agrees with that of the more precise spectral titration [KD=5 (±1) μM]. Binding experiments were performed at least twice to confirm reproducibility, and the reported errors correspond to the uncertainty in the fit parameters.
For orientation: Polarisation of emitted light reports the rotation of a fluorescent probe.

Each structure is given as a SMILES string.

Usually Kd stands for the constant that tells how readily two partners part at equilibrium.

For `COc1ccc(-n2nc(C(N)=O)c3c2C(=O)N(c2ccc(N4CCCCC4=O)cc2)CC3)cc1` [apixaban], the Kd (ABLE 20 μM, apixaban-peg-FITC 25 nM, 50 mM NaPi, 100 mM NaCl, pH 7.4, fit of initial points at DMSO <2%, KD of weaker competitors viewed as lower limit, read-out: KD of competing ligand for ABLE, competitive binding model) came out at 7 µM. The “fold tighter binding to ABLE than rivaroxaban” value (fluorescence polarization competition, FIG. 4D) is reported as 20 fold.

Consider `O=C(NC[C@H]1CN(c2ccc(N3CCOCC3=O)cc2)C(=O)O1)c1ccc(Cl)s1` [rivaroxaban], for which the “binding to ABLE (in words)” value (competition with apixaban-peg-FITC) is “only very weak binding”.
